# Data: US20250223268A1, “4-Methylsulfonylbenzamide Compound, Preparation Method, Herbicidal Composition And Use” (Jiangsu Flag Chemical Industry Co., Ltd., priority 2022, published 2025)
# What was measured:
# Test in all cases: Greenhouse herbicidal activity assay, post-emergence
# Format in all cases: in vivo
# [1] = tested on: Cyperus iria; details: Post-emergence test, rate 150 g a.i./hm^2, grade by fresh weight inhibition rate; for pest or weed control at 150 g/ha: Cyperus iria, read-out: Control efficacy grade, Cyperus iria
# Excerpt: (§1) Post-emergence: Seeds of gramineous weeds (Echinochloa crusgalli, Echinochloa crusgalli var. zelayensis, Echinochloa phyllopogon, Eleusine indica, Digitaria sanguinalis, Leptochloa chinensis, Setaria viridis, Alopecurus japonicus Steud, Beckmannia syzigachne, Polypogon fugax, Alopecurus aequalis, Lolium multiflorum, Poa annua, Aegilops tataschii, Avena fatua, Alopecurus myosuroides, Bromus japonicus), broadleaf weeds (Eclipta prostrata, Amaranthus retroflexus, Rorippa indica, Myosoton aquaticum, Veronica didyma, Galium aparine, Solanum nigrum, Xanthium sibiricum, Conyza canadensis, Sesbania cannabina, Sagittaria trifolia), and Cyperus iria (Cyperus iria, Scirpus juncoides, Cyperus difformis, etc.) were sown in plastic pots (7 cm diameter) with nutrient soil and bottom holes. Crop seeds (including Oryza sativa subsp. indica, Oryza sativa subsp. japonica, Oryza sativa L. var. Glutinosa matsum, Triticum aestivum, Zea mays, Sorghum bicolor, Setaria italica, Glycine max, Gossypium hirsutum, Brassica napus, Arachis hypogaea) were sown in plastic pots (10 cm diameter) with nutrient soil and bottom holes. After sowing, the pots were placed in the growth chamber until the plants reached the 3-6 leaf stage for foliar spraying. Post-treatment, the materials were air-dried naturally and returned to the growth chamber. Results were assessed 14-21 days later.
# (§2) • A: Fresh weight inhibition rate≥80% to 100%; • B: Fresh weight inhibition rate[…] to <80%; • C: Fresh weight inhibition rate≥40% to <60%; • D: Fresh weight inhibition rate≥20% to <40%; • E: Fresh weight inhibition rate<20%; • NT: Not tested.
# [2] = tested on: Leptochloa chinensis; details: Post-emergence test, rate 150 g a.i./hm^2, grade by fresh weight inhibition rate; for pest or weed control at 150 g/ha: Dinebra chinensis, read-out: Control efficacy grade, Leptochloa chinensis
# Excerpt: as §1, §2
# [3] = tested on: Echinochloa crusgalli; details: Post-emergence test, rate 150 g a.i./hm^2, grade by fresh weight inhibition rate; for pest or weed control at 150 g/ha: Echinochloa crus-galli, read-out: Control efficacy grade, Echinochloa crusgalli
# Excerpt: as §1, §2
# [4] = tested on: Eclipta prostrata; details: Post-emergence test, rate 150 g a.i./hm^2, grade by fresh weight inhibition rate
# Excerpt: as §1, §2
# [5] = tested on: Digitaria sanguinalis; details: Post-emergence test, rate 150 g a.i./hm^2; grade by fresh weight inhibition rate
# Excerpt: as §1, §2
SMILES,"Control efficacy grade, Cyperus iria [1]","Control efficacy grade, Leptochloa chinensis [2]","Control efficacy grade, Echinochloa crusgalli [3]","Control efficacy grade, Eclipta prostrata [4]",also measured
CCC[S+]([O-])c1c(S(C)(=O)=O)ccc(C(=O)N(C)c2nnnn2C)c1Cl (racemic) [Compound 1-98],A (Fresh weight inhibition rate≥80% to 100%),A (Fresh weight inhibition rate≥80% to 100%),A (Fresh weight inhibition rate≥80% to 100%),–,–
Cn1ncnc1NC(=O)c1ccc(S(C)(=O)=O)c(S(=O)(=O)CC2CC2)c1Cl [Compound 2-31],A (Fresh weight inhibition rate≥80% to 100%),A (Fresh weight inhibition rate≥80% to 100%),A (Fresh weight inhibition rate≥80% to 100%),A (Fresh weight inhibition rate≥80% to 100%),–
Cn1nnnc1NC(=O)c1ccc(S(C)(=O)=O)c(SC2CCCC2)c1Cl [Compound 1-42],A (Fresh weight inhibition rate≥80% to 100%),A (Fresh weight inhibition rate≥80% to 100%),B (Fresh weight inhibition rate≥260% to <80%),A (Fresh weight inhibition rate≥80% to 100%),–
CS(=O)(=O)c1ccc(C(=O)Nc2nnco2)c(Cl)c1S(=O)(=O)CCC#N [Compound 3-377],A (Fresh weight inhibition rate≥80% to 100%),A (Fresh weight inhibition rate≥80% to 100%),C (Fresh weight inhibition rate≥40% to <60%),A (Fresh weight inhibition rate≥80% to 100%),–
CCCSc1c(S(C)(=O)=O)ccc(C(=O)N(C)c2nnnn2C)c1Cl [Compound 1-97],A (Fresh weight inhibition rate≥80% to 100%),–,–,–,"Control efficacy grade, Digitaria sanguinalis [5]: B (Fresh weight inhibition rate≥260% to <80%)"
CC(C)c1nnc(NC(=O)c2ccc(S(C)(=O)=O)c(SC3CC3)c2Cl)o1 [Compound 3-535],A (Fresh weight inhibition rate≥80% to 100%),B (Fresh weight inhibition rate≥260% to <80%),B (Fresh weight inhibition rate≥260% to <80%),–,–
CC(C)c1nnc(NC(=O)c2ccc(S(C)(=O)=O)c([S+]([O-])C3CCCCC3)c2Cl)o1 (racemic) [Compound 3-551],A (Fresh weight inhibition rate≥80% to 100%),A (Fresh weight inhibition rate≥80% to 100%),B (Fresh weight inhibition rate≥260% to <80%),A (Fresh weight inhibition rate≥80% to 100%),–
CC(C)c1nnc(NC(=O)c2ccc(S(C)(=O)=O)c([S+]([O-])C3CCCC3)c2Cl)o1 (racemic) [Compound 3-546],A (Fresh weight inhibition rate≥80% to 100%),A (Fresh weight inhibition rate≥80% to 100%),B (Fresh weight inhibition rate≥260% to <80%),A (Fresh weight inhibition rate≥80% to 100%),–
CCc1nnc(NC(=O)c2ccc(S(C)(=O)=O)c(SC(C)CC)c2Cl)o1 (racemic) [Compound 3-398],A (Fresh weight inhibition rate≥80% to 100%),A (Fresh weight inhibition rate≥80% to 100%),B (Fresh weight inhibition rate≥260% to <80%),–,–
Cc1nnc(N(C)C(=O)c2ccc(S(C)(=O)=O)c([S+]([O-])CC(F)(F)F)c2Cl)o1 (racemic) [Compound 3-832],–,–,A (Fresh weight inhibition rate≥80% to 100%),–,–
Cn1nnnc1NC(=O)c1ccc(S(C)(=O)=O)c([S+]([O-])C2CCCC2)c1Cl (racemic) [Compound 1-43],A (Fresh weight inhibition rate≥80% to 100%),A (Fresh weight inhibition rate≥80% to 100%),A (Fresh weight inhibition rate≥80% to 100%),A (Fresh weight inhibition rate≥80% to 100%),–
"CC(C)Sc1c(S(C)(=O)=O)ccc(C(=O)Nc2nnc(C3CC3)o2)c1Cl [Compound 3-620, 2-chloro-N-(5-cyclopropyl-1,3,4-oxadiazol-2-yl)-3-(isopropylthio)-4-(methylsulfonyl)benzamide]",–,–,–,–,"pest or weed control at 150 g/ha [1]: 80 to 260%; pest or weed control at 150 g/ha [2]: 80 to 100%; pest or weed control at 150 g/ha [3]: 80 to 100%; pest or weed control at 150 g/ha ([4]; Eclipta prostrata, read-out: Control efficacy grade, Eclipta prostrata): 80 to 260%"
CCC(C)[S+]([O-])c1c(S(C)(=O)=O)ccc(C(=O)N(C)c2nnc(C)o2)c1Cl (mixture of isomers) [Compound 3-820],–,–,A (Fresh weight inhibition rate≥80% to 100%),–,–
Cc1nnc(N(C)C(=O)c2ccc(S(C)(=O)=O)c([S+]([O-])CCCl)c2Cl)o1 (racemic) [Compound 3-835],–,–,A (Fresh weight inhibition rate≥80% to 100%),–,–
Cn1nnnc1NC(=O)c1ccc(S(C)(=O)=O)c(SC2CCC2)c1Cl [Compound 1-37],A (Fresh weight inhibition rate≥80% to 100%),–,A (Fresh weight inhibition rate≥80% to 100%),A (Fresh weight inhibition rate≥80% to 100%),–
CC(C)[S+]([O-])c1c(S(C)(=O)=O)ccc(C(=O)N(C)c2nnc(C3CC3)o2)c1Cl (racemic) [Compound 3-809],–,–,B (Fresh weight inhibition rate≥260% to <80%),–,–
CCC(C)Sc1c(S(C)(=O)=O)ccc(C(=O)Nc2nnnn2C)c1Cl (racemic) [Compound 1-16],B (Fresh weight inhibition rate≥260% to <80%),A (Fresh weight inhibition rate≥80% to 100%),A (Fresh weight inhibition rate≥80% to 100%),A (Fresh weight inhibition rate≥80% to 100%),–
Cc1nnc(N(C)C(=O)c2ccc(S(C)(=O)=O)c([S+]([O-])C3CC3)c2Cl)o1 (racemic) [Compound 3-812],–,B (Fresh weight inhibition rate≥260% to <80%),B (Fresh weight inhibition rate≥260% to <80%),A (Fresh weight inhibition rate≥80% to 100%),–
Cn1nnnc1NC(=O)c1ccc(S(C)(=O)=O)c(SC2CCCCC2)c1Cl [Compound 1-47],A (Fresh weight inhibition rate≥80% to 100%),A (Fresh weight inhibition rate≥80% to 100%),B (Fresh weight inhibition rate≥260% to <80%),A (Fresh weight inhibition rate≥80% to 100%),–
Cc1nnc(N(C)C(=O)c2ccc(S(C)(=O)=O)c([S+]([O-])CC(C)C)c2Cl)o1 (racemic) [Compound 3-829],–,B (Fresh weight inhibition rate≥260% to <80%),A (Fresh weight inhibition rate≥80% to 100%),–,–
"CCc1nnc(NC(=O)c2ccc(S(C)(=O)=O)c(SC(C)C)c2Cl)o1 [Compound 3-388, 2-chloro-N-(5-ethyl-1,3,4-oxadiazol-2-yl)-3-(isopropylthio)-4-(methylsulfonyl)benzamide]",–,–,–,–,pest or weed control at 150 g/ha [1]: 80 to 100%; pest or weed control at 150 g/ha [2]: 80 to 100%; pest or weed control at 150 g/ha [3]: 80 to 100%
